Measurements from US8207156B2, “Substituted pyrazoline compounds, their preparation and use as medicaments” (Laboratorios Del Dr. Esteve, S.A., priority 2005, dated 2012).

What was measured:
CB1 receptor [1] = molecular target: T1, CB1 receptor; assay: In-vitro determination of affinity to CB1/CB2-receptors (radioligand [3H]-CP55940 binding); conditions: binding data per pharmacological methods part I, table does not say whether human transfected receptor or rat cerebellum
T1 construct: IC50 [nM]; radioligand [3H]-CP55940
Procedure, shortened: (§1)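 Transfected human CB1/CB2 receptors were tested with [3H]-CP55940. In the modified Govaerts method, rat cerebellum membranes (100 µg protein) were incubated with 1 nM [3H]-CP55940 and compound for 1 h at 30 °C in Tris-HCl/MgCl2/EDTA/0.5% BSA, pH 7.4, with 10 µM HU-210 defining non-specific binding. Filter-bound radioactivity was counted in triplicate and analysed by non-linear regression.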

[2] = molecular target: recombinant human cannabinoid 1 receptor (CB1) (Homo sapiens, UniProt P21554); assay: In vitro determination of antagonism to CB1-receptor ([35S]GTPγS binding assay, CHO cell membranes); assay type: biochemical; conditions: compound at 1 μM against agonist WIN 55,212-2 (3 nM to 3 μM); effect of Rimonabant (1 μM) defined as 100%
recombinant human cannabinoid 1 receptor (CB1), sequence (P21554 whole entry): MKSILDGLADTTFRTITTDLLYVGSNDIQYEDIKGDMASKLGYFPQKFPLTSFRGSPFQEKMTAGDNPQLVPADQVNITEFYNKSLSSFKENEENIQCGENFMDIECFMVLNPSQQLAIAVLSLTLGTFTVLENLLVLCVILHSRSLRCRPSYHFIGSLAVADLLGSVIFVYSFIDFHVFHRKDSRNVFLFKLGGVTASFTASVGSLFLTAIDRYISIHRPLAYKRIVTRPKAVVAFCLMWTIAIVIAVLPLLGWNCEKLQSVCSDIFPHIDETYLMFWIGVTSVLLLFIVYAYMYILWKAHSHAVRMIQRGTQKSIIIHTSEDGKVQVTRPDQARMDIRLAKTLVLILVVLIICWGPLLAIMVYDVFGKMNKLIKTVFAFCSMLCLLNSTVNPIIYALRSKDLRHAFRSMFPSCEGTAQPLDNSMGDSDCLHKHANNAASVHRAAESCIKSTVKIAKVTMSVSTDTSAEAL
Procedure, shortened: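 Membranes from CHO cells stably expressing human CB1 (15 μg protein/well) incubated 60 min at 30° C., pH 7.4, with 5 μM GDP, saponin and 0.5 nM [35S]GTPγS, compound at 1 μM final, with or without WIN 55,212-2 (3 nM–3 μM). Bound radioactivity via filtration; basal subtracted, antagonism scaled to WIN 55,212-2 ± Rimonabant (1 μM) window as 100%.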

CB1 receptor [3] = molecular target: T2, CB1 receptor (UniProt P20272); assay: In-vitro determination of affinity to CB1/CB2-receptors (radioligand [3H]-CP55940 binding)
T2 construct: other: compound at 10^−7 M; radioligand [3H]-CP55940; other: compound at 10^−8 M
Procedure, shortened: as §1

IC50 (CB1 receptor [1]) [nM] | Antagonism [%] [2] [%] | Inhibition [%], 10^−7 M (CB1 receptor [3]; compound at 10^−7 M) [%] | Inhibition [%], 10^−8 M (CB1 receptor [3]; compound at 10^−8 M) [%] | Structure (SMILES)
562 | 63 |  |  | O=C(NN1CCN(C2CCCC2)CC1)C1=NN(c2ccc(Cl)cc2Cl)C(c2ccc(Br)cc2)C1 (centres unmarked) [Example 64, 5-(4-Bromo-phenyl)-1-(2,4-dichloro-phenyl)-4,5-dihydro-1H-pyrazole-3-carboxylic acid (4-cyclopentyl-piperazin-1-yl)-amide]
708 | 20 |  |  | O=C(C1=NN(c2ccc(Cl)cc2Cl)C(c2ccc(Cl)cc2)C1)N1CCCc2ccccc21 (centres unmarked) [Example 81, [5-(4-Chloro-phenyl)-1-(2,4-dichloro-phenyl)-4,5-dihydro-1H-pyrazol-3-yl]-(3,4-dihydro-2H-quinolin-1-yl)-methanone]
250 | 78 |  |  | CC1CCCC(C)N1NC(=O)C1=NN(c2ccc(Cl)cc2Cl)C(c2ccc(Cl)cc2)C1 (centres unmarked) [Example 12, 5-(4-Chloro-phenyl)-1-(2,4-dichloro-phenyl)-4,5-dihydro-1H-pyrazole-3-carboxylic acid (2,6-dimethyl-piperidin-1-yl)-amide]
39.8 | 91 |  |  | O=C(NN1CCCCC1)C1=NN(c2ccc(Cl)cc2Cl)C(c2ccc(F)cc2)C1 (centres unmarked) [Example 23, 1-(2,4-Dichloro-phenyl)-5-(4-fluoro-phenyl)-4,5-dihydro-1H-pyrazole-3-carboxylic acid piperidin-1-ylamide]
398 | 57 |  |  | O=C(NC1CCCc2ccccc21)C1=NN(c2ccc(Cl)cc2Cl)C(c2ccc(Cl)cc2)C1 (centres unmarked) [Example 76, 5-(4-Chloro-phenyl)-1-(2,4-dichloro-phenyl)-4,5-dihydro-1H-pyrazole-3-carboxylic acid (1,2,3,4-tetrahydro-naphthalen-1-yl)-amide]
39.8 | 81 |  |  | CC1CCCC(NC(=O)C2=NN(c3ccc(Cl)cc3Cl)C(c3ccc(Cl)cc3)C2)C1 (centres unmarked) [Example 57, 5-(4-Chloro-phenyl)-1-(2,4-dichloro-phenyl)-4,5-dihydro-1H-pyrazole-3-carboxylic acid (3-methyl-cyclohexyl)-amide]
117 | 31 | 50.7 | 32.9 | CC1Cc2ccccc2N1NC(=O)C1=NN(c2ccc(Cl)cc2Cl)C(c2ccc(Cl)cc2)C1 (centres unmarked) [Example 27, 5-(4-Chloro-phenyl)-1-(2,4-dichloro-phenyl)-4,5-dihydro-1H-pyrazole-3-carboxylic acid (2-methyl-2,3-dihydro-indol-1-yl)-amide]
> 1000 | 42 |  |  | O=C(C1=NN(c2ccc(Cl)cc2Cl)C(c2ccc(Cl)cc2)C1)N1C=NCCC1 (centres unmarked) [Example 75, [5-(4-Chloro-phenyl)-1-(2,4-dichloro-phenyl)-4,5-dihydro-1H-pyrazol-3-yl]-(5,6-dihydro-4H-pyrimidin-1-yl)-methanone]
280 | 81 |  |  | O=C(NC1CCCC1)C1=NN(c2ccc(Cl)cc2Cl)C(c2ccc(Cl)cc2)C1 (centres unmarked) [Example 37, 5-(4-Chloro-phenyl)-1-(2,4-dichloro-phenyl)-4,5-dihydro-1H-pyrazole-3-carboxylic acid cyclopentylamide]
25.1 | 78 |  |  | CC1CCCCC1NC(=O)C1=NN(c2ccc(Cl)cc2Cl)C(c2ccc(Cl)cc2)C1 (centres unmarked) [Example 18, 5-(4-Chloro-phenyl)-1-(2,4-dichloro-phenyl)-4,5-dihydro-1H-pyrazole-3-carboxylic acid (2-methyl-cyclohexyl)-amide]

Structure (SMILES) | IC50 (CB1 receptor [1]) [nM] | Antagonism [%] [2] [%] | Inhibition [%], 10^−7 M (CB1 receptor [3]; compound at 10^−7 M) [%] | Inhibition [%], 10^−8 M (CB1 receptor [3]; compound at 10^−8 M) [%]
O=C(NN1CCCCCC1)C1=NN(c2ccc(Cl)cc2Cl)C(c2ccc(Br)cc2)C1 (centres unmarked) [Example 68, 5-(4-Bromo-phenyl)-1-(2,4-dichloro-phenyl)-4,5-dihydro-1H-pyrazole-3-carboxylic acid azepan-1-ylamide] | 39.8 | 98 |  | 
Cl.O=C(NN1CCc2ccccc21)C1=NN(c2ccc(Cl)cc2Cl)C(c2ccc(Br)cc2)C1 (centres unmarked) [Example 66, 5-(4-Bromo-phenyl)-1-(2,4-dichloro-phenyl)-4,5-dihydro-1H-pyrazole-3-carboxylic acid (2,3-dihydro-indol-1-yl)-amide hydrochloride] | 100 | 86 |  | 
